In BigSolDB 2.1:

Nc1ncccn1
Conditions | solubility (mole fraction)
in 2-butanone, 272.65 K | 0.0201
in 2-butanone, 278.25 K | 0.0249
in 2-butanone, 283.55 K | 0.0317
in 2-butanone, 288.15 K | 0.0361
in 2-butanone, 293.15 K | 0.0418
in 2-butanone, 297.85 K | 0.0512
in 2-butanone, 302.65 K | 0.0621
in 2-butanone, 307.25 K | 0.0721
in 2-butanone, 312.55 K | 0.0865
in 2-butanone, 317.35 K | 0.0988
in 2-butanone, 323.35 K | 0.118
in 2-pentanone, 272.65 K | 0.0158
in 2-pentanone, 278.25 K | 0.0192
in 2-pentanone, 283.55 K | 0.0238
in 2-pentanone, 288.15 K | 0.027
in 2-pentanone, 293.15 K | 0.0309
in 2-pentanone, 297.85 K | 0.0372
in 2-pentanone, 302.65 K | 0.0446
in 2-pentanone, 307.25 K | 0.0513
in 2-pentanone, 312.55 K | 0.0603
in 2-pentanone, 317.35 K | 0.0684
in 2-pentanone, 323.35 K | 0.0808
in acetone, 272.65 K | 0.0222
in acetone, 278.25 K | 0.027
in acetone, 283.55 K | 0.0311
in acetone, 288.15 K | 0.0359
in acetone, 293.15 K | 0.0415
in acetone, 297.85 K | 0.0478
in acetone, 302.65 K | 0.0545
in acetone, 307.25 K | 0.0618
in acetone, 312.55 K | 0.0702
in acetone, 317.35 K | 0.0802
in acetone, 323.35 K | 0.0913
in acetonitrile, 272.65 K | 0.0108
in acetonitrile, 278.25 K | 0.0128
in acetonitrile, 283.55 K | 0.0156
in acetonitrile, 288.15 K | 0.0176
in acetonitrile, 293.15 K | 0.0203
in acetonitrile, 297.85 K | 0.0251
in acetonitrile, 302.65 K | 0.0308
in acetonitrile, 307.25 K | 0.0366
in acetonitrile, 312.55 K | 0.0449
in acetonitrile, 317.35 K | 0.0531
in acetonitrile, 323.35 K | 0.0661
in cyclohexanone, 272.65 K | 0.0371
in cyclohexanone, 278.25 K | 0.0457
in cyclohexanone, 283.55 K | 0.0529
in cyclohexanone, 288.15 K | 0.0618
in cyclohexanone, 293.15 K | 0.072
in cyclohexanone, 297.85 K | 0.0835
in cyclohexanone, 302.65 K | 0.0952
in cyclohexanone, 307.25 K | 0.109
in cyclohexanone, 312.55 K | 0.124
in cyclohexanone, 317.35 K | 0.143
in cyclohexanone, 323.35 K | 0.164
in cyclopentanone, 272.65 K | 0.0605
in cyclopentanone, 278.25 K | 0.0721
in cyclopentanone, 283.55 K | 0.0815
in cyclopentanone, 288.15 K | 0.0918
in cyclopentanone, 293.15 K | 0.103
in cyclopentanone, 297.85 K | 0.116
in cyclopentanone, 302.65 K | 0.128
in cyclopentanone, 307.25 K | 0.14
in cyclopentanone, 312.55 K | 0.154
in cyclopentanone, 317.35 K | 0.169
in cyclopentanone, 323.35 K | 0.185
in ethanol, 272.65 K | 0.00996
in ethanol, 278.25 K | 0.0138
in ethanol, 283.55 K | 0.0184
in ethanol, 288.15 K | 0.0234
in ethanol, 293.15 K | 0.0302
in ethanol, 297.85 K | 0.0384
in ethanol, 302.65 K | 0.0485
in ethanol, 307.25 K | 0.06
in ethanol, 312.55 K | 0.0765
in ethanol, 317.35 K | 0.0945
in ethanol, 323.35 K | 0.123
in ethyl acetate, 272.65 K | 0.0337
in ethyl acetate, 278.25 K | 0.0366
in ethyl acetate, 283.55 K | 0.0407
in ethyl acetate, 288.15 K | 0.0436
in ethyl acetate, 293.15 K | 0.0474
in ethyl acetate, 297.85 K | 0.0536
in ethyl acetate, 302.65 K | 0.0609
in ethyl acetate, 307.25 K | 0.0678
in ethyl acetate, 312.55 K | 0.0779
in ethyl acetate, 317.35 K | 0.0867
in ethyl acetate, 323.35 K | 0.101
in ethyl formate, 272.65 K | 0.0286
in ethyl formate, 278.25 K | 0.0364
in ethyl formate, 283.55 K | 0.0471
in ethyl formate, 288.15 K | 0.0542
in ethyl formate, 293.15 K | 0.0631
in ethyl formate, 297.85 K | 0.0772
in ethyl formate, 302.65 K | 0.0928
in ethyl formate, 307.25 K | 0.106
in ethyl formate, 312.55 K | 0.125
in ethyl formate, 317.35 K | 0.14
in ethyl formate, 323.35 K | 0.163
in isobutanol, 272.65 K | 0.00833
in isobutanol, 278.25 K | 0.0116
in isobutanol, 283.55 K | 0.0155
in isobutanol, 288.15 K | 0.02
in isobutanol, 293.15 K | 0.0259
in isobutanol, 297.85 K | 0.0331
in isobutanol, 302.65 K | 0.0423
in isobutanol, 307.25 K | 0.0528
in isobutanol, 312.55 K | 0.0669
in isobutanol, 317.35 K | 0.0828
in isobutanol, 323.35 K | 0.107
in isopentanol, 272.65 K | 0.0102
in isopentanol, 278.25 K | 0.0136
in isopentanol, 283.55 K | 0.0174
in isopentanol, 288.15 K | 0.0215
in isopentanol, 293.15 K | 0.0264
in isopentanol, 297.85 K | 0.0321
in isopentanol, 302.65 K | 0.0385
in isopentanol, 307.25 K | 0.0458
in isopentanol, 312.55 K | 0.0546
in isopentanol, 317.35 K | 0.0638
in isopentanol, 323.35 K | 0.0769
in isopropanol, 272.65 K | 0.00686
in isopropanol, 278.25 K | 0.00999
in isopropanol, 283.55 K | 0.0139
in isopropanol, 288.15 K | 0.0184
in isopropanol, 293.15 K | 0.025
in isopropanol, 297.85 K | 0.0325
in isopropanol, 302.65 K | 0.0422
in isopropanol, 307.25 K | 0.0539
in isopropanol, 312.55 K | 0.0718
in isopropanol, 317.35 K | 0.0918
in isopropanol, 323.35 K | 0.122
in methanol, 272.65 K | 0.0213
in methanol, 278.25 K | 0.028
in methanol, 283.55 K | 0.0359
in methanol, 288.15 K | 0.0444
in methanol, 293.15 K | 0.0554
in methanol, 297.85 K | 0.0675
in methanol, 302.65 K | 0.0823
in methanol, 307.25 K | 0.0984
in methanol, 312.55 K | 0.121
in methanol, 317.35 K | 0.145
in methanol, 323.35 K | 0.18
in methyl acetate, 272.65 K | 0.0189
in methyl acetate, 278.25 K | 0.0234
in methyl acetate, 283.55 K | 0.0296
in methyl acetate, 288.15 K | 0.0341
in methyl acetate, 293.15 K | 0.0397
in methyl acetate, 297.85 K | 0.0488
in methyl acetate, 302.65 K | 0.0596
in methyl acetate, 307.25 K | 0.0694
in methyl acetate, 312.55 K | 0.0838
in methyl acetate, 317.35 K | 0.0956
in methyl acetate, 323.35 K | 0.115
in n-butanol, 272.65 K | 0.00804
in n-butanol, 278.25 K | 0.0114
in n-butanol, 283.55 K | 0.0157
in n-butanol, 288.15 K | 0.0205
in n-butanol, 293.15 K | 0.027
in n-butanol, 297.85 K | 0.0349
in n-butanol, 302.65 K | 0.0449
in n-butanol, 307.25 K | 0.0569
in n-butanol, 312.55 K | 0.0743
in n-butanol, 317.35 K | 0.0934
in n-butanol, 323.35 K | 0.123
in n-pentanol, 272.65 K | 0.0117
in n-pentanol, 278.25 K | 0.0147
in n-pentanol, 283.55 K | 0.0182
in n-pentanol, 288.15 K | 0.0219
in n-pentanol, 293.15 K | 0.0264
in n-pentanol, 297.85 K | 0.0314
in n-pentanol, 302.65 K | 0.0373
in n-pentanol, 307.25 K | 0.0437
in n-pentanol, 312.55 K | 0.0521
in n-pentanol, 317.35 K | 0.0609
in n-pentanol, 323.35 K | 0.0733
in n-propanol, 272.65 K | 0.0142
in n-propanol, 278.25 K | 0.0187
in n-propanol, 283.55 K | 0.0243
in n-propanol, 288.15 K | 0.03
in n-propanol, 293.15 K | 0.0377
in n-propanol, 297.85 K | 0.0462
in n-propanol, 302.65 K | 0.0567
in n-propanol, 307.25 K | 0.0687
in n-propanol, 312.55 K | 0.0849
in n-propanol, 317.35 K | 0.102
in n-propanol, 323.35 K | 0.127
